Laboratory results from US20210115104A1, “AMYLIN ANALOGUES” (Zealand Pharma A/S, priority 2015, published 2021).
*1 amine or outer side, *2 acyl side, *3 side chain or, on linkers, in order; H or OH if unused. Where a SMILES comes first, the peptide text is derived from it. Bridges are numbered along the chain shown (N, C = ends). [ ]: non-standard residue; d: D form. The star is where a group is joined. C20 diacid = O=C(O)CCCCCCCCCCCCCCCCCCC(=O)*; γGlu = O=C(O)[C@H](CCC(=O)[*:2])N[*:1]; Hyp = O=C(O)[C@@H]1C[C@@H](O)CN1; NMeI = CC[C@H](C)[C@H](NC)C(=O)O; Aad = N[C@@H](CCCC(=O)O)C(=O)O; Sar = CNCC(=O)O

Assays:
[1] = target: T1, human amylin receptor 3 (hAMYR3), hCTR2 co-expressed with hRAMP3 (Homo sapiens, UniProt O60896+P30988); test: hAMYR3 cAMP assay (AlphaScreen) in COS7 cells; format: cell-based; conditions: cAMP induction, COS7 cells expressing hAMYR3; Table 1; read-out: hAMYR3 EC50
T1 construct: expressed in transfected cells
T1 sequence (P30988 25-474): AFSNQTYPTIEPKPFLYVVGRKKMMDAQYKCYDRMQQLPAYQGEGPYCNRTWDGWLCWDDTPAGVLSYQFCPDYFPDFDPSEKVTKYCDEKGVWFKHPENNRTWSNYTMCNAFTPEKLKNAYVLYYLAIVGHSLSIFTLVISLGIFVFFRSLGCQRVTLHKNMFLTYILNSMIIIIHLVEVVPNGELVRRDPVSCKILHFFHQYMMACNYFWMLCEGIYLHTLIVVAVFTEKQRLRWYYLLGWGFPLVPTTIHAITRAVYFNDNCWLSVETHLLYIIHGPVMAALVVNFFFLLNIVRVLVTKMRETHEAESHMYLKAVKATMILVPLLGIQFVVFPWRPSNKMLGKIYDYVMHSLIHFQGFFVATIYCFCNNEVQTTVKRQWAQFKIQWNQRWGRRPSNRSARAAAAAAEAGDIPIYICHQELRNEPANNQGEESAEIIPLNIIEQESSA
T1 sequence (O60896 24-148 partner): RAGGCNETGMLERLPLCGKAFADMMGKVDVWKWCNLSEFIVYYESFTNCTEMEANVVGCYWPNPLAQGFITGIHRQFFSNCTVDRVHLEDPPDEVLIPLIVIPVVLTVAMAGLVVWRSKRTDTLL
Method in brief: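 EC50 values derive from 4PL curve fits of cAMP (AlphaScreen) in lysates of RAMP-naive COS7 cells stably carrying hCTR2 plus hRAMP3. Peptide dilution series were applied for 15 min at 37 °C in pH 7.4 Tyrode buffer containing 100 µM IBMX and 0.1% casein.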

[2] = Assessment of physical stability (Thioflavin T fibrillation); format: physicochemical; set-up: key: FND = fibrillation not detected; FD = fibrillation detected; conditions: 1 mg/ml, 40° C., ThT; for Fibrillation pH 4.0 (Ac): 50 mM acetate buffer pH 4.0, 96 hours; for Fibrillation pH 7.0 (His): 50 mM histidine buffer pH 7.0, 96 hours; for Fibrillation pH 7.0 (Phos.): 50 mM phosphate buffer pH 7.0, 96 hours
Method in brief: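 Fibrillation lag-time, in hours, taken where regressions of the initial stable phase and the growth phase intersect. ThT (40 μM) fluorescence monitored at 40 °C for 96 h, 10-min reads each preceded by 300 s mixing. Peptide at 1 mg/ml in 50 mM buffers: phosphate or histidine pH 7.0, acetate pH 4.0.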

[3] = Pharmacokinetic (PK) profiling in rats; format: in vivo, rat; set-up: CI/F (apparent clearance values): unit not given here; conditions: Sprague Dawley male rats, single sc 30 nmol/kg; for half-life: rat, plasma, read-out: Plasma terminal elimination half-life t1/2 (converted)
Method in brief: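 Male Sprague Dawley rats received a single sc dose of 30 nmol/kg in mannitol-containing histidine buffer (pH 7.0), with tail-vein sampling before dosing and at 24–168 hours. Plasma was ethanol-precipitated and assayed by LC-MS/MS. Non-compartmental analysis of mean concentrations gave t1/2 as ln(2)/λz and CL/F as dose/AUCinf.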

Row | Structure (SMILES) | EC50 [1] | Fibrillation pH 4.0 (Ac) [2] | Fibrillation pH 7.0 (His) [2] | Fibrillation pH 7.0 (Phos.) [2] | CI/F (apparent clearance values) [3] | half-life [3]
1 | CC[C@H](C)[C@@H](C(=O)N[C@@H](CC(C)C)C(=O)N[C@@H](CO)C(=O)N[C@@H](CO)C(=O)N[C@H](C(=O)N[C@@H](CCC(=O)O)C(=O)N[C@H](C(=O)NCC(=O)N[C@@H](CO)C(=O)N[C@@H](CC(N)=O)C(=O)N[C@H](C(=O)N1C[C@H](O)C[C@H]1C(N)=O)[C@@H](C)O)C(C)C)[C@@H](C)O)N(C)C(=O)[C@H](C)NC(=O)CN(C)C(=O)[C@H](Cc1ccccc1)NC(=O)[C@H](CO)NC(=O)[C@H](CO)NC(=O)[C@H](CCCNC(=N)N)NC(=O)[C@H](CCC(N)=O)NC(=O)[C@H](CC(C)C)NC(=O)[C@H](Cc1ccccc1)NC(=O)[C@H](CCCC(=O)O)NC(=O)[C@H](C)NC(=O)[C@H](CC(C)C)NC(=O)[C@H](CCCNC(=N)N)NC(=O)[C@H](CCC(=O)O)NC(=O)[C@@H](NC(=O)[C@H](C)NC(=O)[C@@H]1CSSC[C@H](NC(=O)[C@H](CCCNC(=N)N)NC(=O)CC[C@H](NC(=O)CCCCCCCCCCCCCCCCCCC(=O)O)C(=O)O)C(=O)NCC(=O)N[C@@H]([C@@H](C)O)C(=O)N[C@@H](C)C(=O)N[C@@H]([C@@H](C)O)C(=O)N1)[C@@H](C)O [Compound 55, [19CD]-isoGlu-R-C( )-GTAT-C( )-ATERLA-Aad-FLQRSSF-Gly(Me)-A-Ile(Me)-LSSTEVGSNT-Hyp-NH2] ({C20 diacid-γGlu}-RCGTATCATERLA[Aad]FLQRSSF[Sar]A[NMeI]LSSTEVGSNT[Hyp]-NH2; disulfide 2-7) | 0.08 nM | FND | FND | FND | 0.0045 | 1570 min
2 | CC[C@H](C)[C@@H](C(=O)N[C@@H](CC(C)C)C(=O)N[C@@H](CO)C(=O)N[C@@H](CO)C(=O)N[C@H](C(=O)N[C@@H](CCC(=O)O)C(=O)N[C@H](C(=O)NCC(=O)N[C@@H](CO)C(=O)N[C@@H](CC(N)=O)C(=O)N[C@H](C(=O)N1C[C@H](O)C[C@H]1C(N)=O)[C@@H](C)O)C(C)C)[C@@H](C)O)N(C)C(=O)[C@H](C)NC(=O)CN(C)C(=O)[C@H](Cc1ccccc1)NC(=O)[C@H](CO)NC(=O)[C@H](CO)NC(=O)[C@H](CCCNC(=N)N)NC(=O)[C@H](CCC(N)=O)NC(=O)[C@H](CC(C)C)NC(=O)[C@H](Cc1ccccc1)NC(=O)[C@H](Cc1c[nH]cn1)NC(=O)[C@H](C)NC(=O)[C@H](CC(C)C)NC(=O)[C@H](CCCNC(=N)N)NC(=O)[C@H](CCC(=O)O)NC(=O)[C@@H](NC(=O)[C@H](C)NC(=O)[C@@H]1CSSC[C@H](NC(=O)[C@H](CCCNC(=N)N)NC(=O)CC[C@H](NC(=O)CCCCCCCCCCCCCCCCCCC(=O)O)C(=O)O)C(=O)N[C@@H](CCC(N)=O)C(=O)N[C@@H]([C@@H](C)O)C(=O)N[C@@H](C)C(=O)N[C@@H]([C@@H](C)O)C(=O)N1)[C@@H](C)O [Compound 57, [19CD]-isoGlu-R-C( )-QTAT-C( )-ATERLAHFLQRSSF-Gly(Me)-A-Ile(Me)-LSSTEVGSNT-Hyp-NH2] ({C20 diacid-γGlu}-RCQTATCATERLAHFLQRSSF[Sar]A[NMeI]LSSTEVGSNT[Hyp]-NH2; disulfide 2-7) | 0.11 nM | FND | FND | FND | 0.0078 | 1070 min
3 | CC[C@H](C)[C@@H](C(=O)N[C@@H](CC(C)C)C(=O)N[C@@H](CO)C(=O)N[C@@H](CO)C(=O)N[C@H](C(=O)N[C@@H](CCC(=O)O)C(=O)N[C@H](C(=O)NCC(=O)N[C@@H](CO)C(=O)NCC(=O)N[C@H](C(=O)N1C[C@H](O)C[C@H]1C(N)=O)[C@@H](C)O)C(C)C)[C@@H](C)O)N(C)C(=O)[C@H](C)NC(=O)CN(C)C(=O)[C@H](Cc1ccccc1)NC(=O)[C@H](CO)NC(=O)[C@H](CO)NC(=O)[C@H](CCCNC(=N)N)NC(=O)[C@H](CCC(N)=O)NC(=O)[C@H](CC(C)C)NC(=O)[C@H](Cc1ccccc1)NC(=O)[C@H](Cc1c[nH]cn1)NC(=O)[C@H](C)NC(=O)[C@H](CC(C)C)NC(=O)[C@H](CCCNC(=N)N)NC(=O)[C@H](CCC(N)=O)NC(=O)[C@@H](NC(=O)[C@H](C)NC(=O)[C@@H]1CSSC[C@H](NC(=O)[C@H](CCCNC(=N)N)NC(=O)CC[C@H](NC(=O)CCCCCCCCCCCCCCCCCCC(=O)O)C(=O)O)C(=O)N[C@@H](CC(N)=O)C(=O)N[C@@H]([C@@H](C)O)C(=O)N[C@@H](C)C(=O)N[C@@H]([C@@H](C)O)C(=O)N1)[C@@H](C)O [Compound 71, [19CD]-isoGlu-R-C( )-NTAT-C( )-ATQRLAHFLQRSSF-Gly(Me)-A-Ile(Me)-LSSTEVGSGT-Hyp-NH2] ({C20 diacid-γGlu}-RCNTATCATQRLAHFLQRSSF[Sar]A[NMeI]LSSTEVGSGT[Hyp]-NH2; disulfide 2-7) | 0.18 nM | FND | FD | FD | 0.0146 | 
